These results are taken from PubChem BioAssay (NCI).

Holding throughout (test): NCI tumour cell line growth inhibition, 48 h
Assay [1] relates to DMS 114 small cell lung.
In assay [2] the test system is HOP-18 NSCLC.
In assay [3] the test system is RXF-631 renal.
The subject of assay [4] is XF 498 CNS.
The test system of assay [5] is P388 leukemia.
Assay [6] has as its system P388/ADR leukemia.
Assay [7] has as its system SN12K1 renal.

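Method: 48-hour compound exposure of cells in 96-well plates, five concentrations, linear interpolation of endpoints. TGI: total growth inhibition.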 Some results are limits rather than exact numbers.

Turning to `COc1cc2ccc(/C(C)=N/OC(C)=O)cc2cc1OC`, the TGI in assay [1], in assay [2], in assay [3] and in assay [4] was more than 100 µM each time.
As to `NC1=NC(c2ccccc2)CC(c2cc(Cl)cc(Br)c2O)=N1` (centres undefined), the TGI in assay [1] was 27.1 µM; in assay [2], 37.4 µM; in assay [5], more than 20.7 µM; in assay [6], more than 27.8 µM; in assay [3] it was 39.8 µM; in assay [7], 28.3 µM. The same molecule came in with a TGI in assay [4] of 33.9 µM.
`CC1=C(/C=C/C2=CC(=C\C(=O)O)/CC(C3=C(C)CCCC3(C)C)C2)C(C)(C)CCC1` (centres undefined): the TGI stood at 23 µM in assay [1], 27 µM in assay [2], 24.7 µM in assay [3] and 27.4 µM in assay [4].
For `CC(=O)O[C@H]1CCC2[C@@H]3CCC4Nc5c(cnn5-c5ccccc5)C[C@]4(C)C3CC[C@@]21C` (some centres undefined) the same measures were 58.3 µM, 86.5 µM, 42.2 µM and 18.8 µM.
For `CC(C)c1cccc(C(C)C)c1N=C(N)C#N` the same measures were more than 59.2 µM, more than 100 µM, more than 100 µM and more than 100 µM.
As to `C[Si](C)(C)/C=C\CCCN1C(=O)CCC1=O`, the TGI in assay [1], in assay [3] and in assay [4] was more than 100 µM throughout.
For the molecule `NNC(=O)CCC(=O)Nc1ccc(Cl)cc1Cl`, the TGI in assay [1], in assay [3] and in assay [4] was more than 100 µM in each case.
